We go through 3 compounds from publication PMC10766610, “DCAF1-based PROTACs with activity against clinically validated targets overcoming intrinsic- and acquired-degrader resistance” (Nature Communications, 2024).

Assay [1] has as its target DCAF1(WDR) + BRD9-BD(130-250) (Homo sapiens, UniProt Q9H8M2+Q9Y4B6, E1398S). In words: SPR ternary binding assay, immobilized DCAF1(WDR), BRD9-BD(130-250) in buffer.
Experimental: Surface plasmon resonance (SPR) experiments were performed on Biacore T200 and 8 K+ instruments (Cytiva). […] Binary complexes were analyzed with a kinetic 1:1 fit model to obtain KD values. The fit of apparent steady state RU intensities of the ternary complexes was performed using a bell-shaped curve algorithm implemented in Graphpad Prism. […] Residence times (t1/2) were calculated by the inversion of the off-rate.
The target of assay [2] is T1, BRD9 (Homo sapiens, UniProt Q9H8M2).
T1 sequence (Q9H8M2 1-597): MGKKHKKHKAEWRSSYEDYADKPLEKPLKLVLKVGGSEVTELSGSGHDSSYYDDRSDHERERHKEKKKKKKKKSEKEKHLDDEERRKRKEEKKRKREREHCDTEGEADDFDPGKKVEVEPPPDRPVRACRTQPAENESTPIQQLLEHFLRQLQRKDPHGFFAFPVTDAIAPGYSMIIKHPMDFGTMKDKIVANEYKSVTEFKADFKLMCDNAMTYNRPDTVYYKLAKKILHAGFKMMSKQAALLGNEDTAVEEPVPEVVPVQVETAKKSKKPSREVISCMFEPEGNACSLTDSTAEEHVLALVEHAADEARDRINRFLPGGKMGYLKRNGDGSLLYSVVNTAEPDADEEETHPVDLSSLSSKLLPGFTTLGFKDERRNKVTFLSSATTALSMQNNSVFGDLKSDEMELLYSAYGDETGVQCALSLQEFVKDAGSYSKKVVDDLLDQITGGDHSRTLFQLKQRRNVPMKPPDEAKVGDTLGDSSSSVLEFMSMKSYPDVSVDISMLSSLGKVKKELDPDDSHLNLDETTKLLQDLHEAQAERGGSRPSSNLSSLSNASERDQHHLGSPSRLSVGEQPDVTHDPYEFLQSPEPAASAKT
In words: BRD9-HiBiT protein abundance luminescence assay in HEK293 cells. The note with it: 2 h. (In general: HiBiT is a short tag that completes a luciferase, so light tracks the accessible tagged protein.)
Text: HEK293/BRD9-HiBiT pools (PROMEGA # CS3023120) and HEK293/BRD7-HiBiT pools (PROMEGA # CS3023124) were purchased from Promega. We performed clonal selection for HEK293/BRD9-HiBiT cell line using single-cell sorting and screening for HiBiT expression using Nano-Glo HiBiT Lytic Detection System (Promega # N3030). The HEK293/BRD9-HiBiT clone and HEK293/BRD7-HiBiT pool to perform standard HiBiT assays.

Another assay relates to TMD8 cells. In words: Whole proteomics profile, DBt-10 vs (19), TMD8 cells. Particulars: 5 µM DBt-10 vs 5 µM (19), 6 h. The assay is classed as cell-based, human. The method, then:
HEK293T and TMD8 cells were cultured according to protocol and 3 million cells were plated per sample and recovered for 24 h. The following day, cells were treated with indicated compounds at corresponding concentrations for 6 h. Cells were then harvested and washed 2× with PBS before removing all liquid and snap freezing in liquid nitrogen before sample preparation for proteomics.
TMT-labeled peptides were generated with the iST-NHS kit (PreOmics) and TMT10plex (duplicates per condition) or TMT18plex (triplicates per condition) reagent (Thermo Fisher Scientific). Equal amounts of labeled peptides were pooled and separated on a high pH fractionation system with a water-acetonitrile gradient containing 10 mM ammonium formate, pH 11[88]. Alternating rows of the resulting 72 fractions were pooled into 24 samples, dried and resuspended in water containing 0.1% formic acid.
The LC-MS analysis was carried out on an EASY-nLC 1200 system coupled to an Orbitrap Fusion Lumos Tribrid mass spectrometer (Thermo Fisher Scientific). […]
LC-MS raw files were analyzed with Proteome Discoverer 2.4 (Thermo Fisher Scientific). […] TMT reporter ions of the MS3 spectra were integrated with a 20 ppm tolerance and the reporter ion intensities were used for quantification. […] Protein relative quantification was performed using an in-house developed R (v.3.6) script. […]

Assay [3] deals with T1, BRD9. In words: Rescue of DBr-1 mediated BRD9 degradation by co-treatment, BRD9-HiBiT HEK293 cells. Set-up: host or cells: HEK293/BRD9-HiBiT knock-in; clone and BRD9-HiBiT/CAS9/FF clone. The note with it: (13) 1 µM, OICR8268 10 µM, BI-9564 10 µM. It is filed as cell-based. On the procedure: Supplementary figure 4. Competition experiments with DBr-1 and DBr-1-N […]
a) BRD9-HiBiT signal detection of samples pretreated with either DMSO, 10µM OICR-8268, 1µM […]
Data represents average ± standard deviation from n=3 replicates. DC50 values and […]
maximal observed degradation are shown below. […]
b) Cell titer Glow assay of BRD9 HiBiT cells. Cells pretreated with either DMSO, 10µM OICR-8268, […]
Data represents average ± standard deviation from n=3 replicates.
Source data are provided as a Source Data file

Read-outs that look alike come from different tables or passages of the source.

Sequence of DCAF1(WDR) + BRD9-BD(130-250) (Q9Y4B6 1073-1399 E1398S, one chain of several): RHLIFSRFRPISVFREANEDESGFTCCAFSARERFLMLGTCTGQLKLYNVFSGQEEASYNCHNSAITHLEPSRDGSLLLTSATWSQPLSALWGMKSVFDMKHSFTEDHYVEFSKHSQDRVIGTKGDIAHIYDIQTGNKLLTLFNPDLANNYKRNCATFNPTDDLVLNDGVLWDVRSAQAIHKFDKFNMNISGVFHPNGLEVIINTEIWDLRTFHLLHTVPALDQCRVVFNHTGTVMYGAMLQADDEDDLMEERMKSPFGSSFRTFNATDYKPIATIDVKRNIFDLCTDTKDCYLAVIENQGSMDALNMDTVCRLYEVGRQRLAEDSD

For the compound `COc1cc(-c2cn(C)c(=O)c3cnccc23)c(OC)cc1CN1CCC(OCCCCCC(=O)N2CCN(c3ccc4c(NCCN)nc(C5(c6ccc(Cl)cc6)CCCCC5)nc4c3)CC2)CC1` [DBr-1], the Kd in assay [1] (Kd1, apparent KD of first sigmoidal transition, in the presence of 0.2 µM BRD9-BD(130-250)) was found to be 0.02 µM; in assay [1] (SPR KD [μM], + BRD9, with additional BRD9-BD(130-250)) it was 0.005 µM; in assay [1] (read-out: Kd2, apparent KD of second sigmoidal transition, in the presence of 0.2 µM BRD9-BD(130-250)), 6.11 µM. The DC50 stood at 193 nM at BRD9 [2] (read-out: DC50 BRD9-HiBiT, BRD9-HiBiT/CAS9/FF cells) and 90 nM on BRD9 [2] (read-out: DC50 BRD9, HEK293/BRD9-HiBiT cells).

Take `Cc1c(NC(=O)N2CC(O)(CC(C)(C)C)C2)cc(F)cc1-c1ncnc2[nH]c(-c3cnn(CC(=O)N4CCC5(CC4)CN(CCNC(=O)CCCC(=O)N4CCN(c6ccc7c(NCCN)nc(C8(c9ccc(Cl)cc9)CCCCC8)nc7c6)CC4)CCO5)c3)cc12` [DBt-10]: in the assay on TMD8 cells, the “only other protein with significantly reduced abundance (proteomics)” value is recorded as “LIM domain kinase 1 (LIMK1)” and the “strongest reduced protein (proteomics)” value is “BTK”.

As for `CC(=O)N1CCN(c2ccc3c(NCCN)nc(C4(c5ccc(Cl)cc5)CCCCC4)nc3c2)CC1` [compound 13], the “effect of co-treatment on DBr-1 mediated BRD9 degradation” value on BRD9 [3] is reported as “did not affect the degradation efficacy of DBr-1”.
